Reference: paper PMC12531871, “Indole-2-carboxamides Optimization for Antiplasmodial Activity” (ACS Bio & Med Chem Au, 2025)
In brackets after ≈: the same amount, converted by molar mass. Read-outs that look alike come from different tables or passages of the source.

Experiments:
[1] = system: P. falciparum 3D7 strain (Pf3D7); assay: Antiplasmodial activity against P. falciparum 3D7 blood-stage parasites (SYBR Green, 72 h); format: cell-based, Plasmodium falciparum; conditions: for IC50: Plasmodium falciparum; for Pf3D7-IC50 compared to 6a: regio-isomers compared to 6a
[2] = eLogD at pH 7.4, miniaturized shake flask method; format: physicochemical; conditions: 1-octanol/PBS (1:1, v/v), pH 7.4, pH 7.4, miniaturized shake flask method
Experimental: eLogD at pH 7.4 was determined using a miniaturized shake flask method. A solution of a presaturated mixture of 1-octanol and phosphate-buffered saline (PBS) (1:1, v/v) and the test compound (75 μM) was incubated at 25 °C with constant shaking (850 rpm) for 2h. After incubation, the organic and aqueous phases were separated, and samples of each phase were transferred to a plate for dilution. […] The samples were quantitated using LC-MS/MS. The experiment was carried out in duplicate. Propranolol, Amitriptyline, and Midazolam were used as reference standards.

[3] = Kinetic solubility at pH 7.4; format: physicochemical; conditions: phosphate-buffered saline, 25 °C, pH 7.4, aqueous buffer, kinetic from dmso stock; read-out: Kinetic solubility (Sol)
Experimental: Kinetic solubility assay was performed using UV–vis detection. […] The samples were filtered using a multiscreen solubility filter plate. The filtrate was diluted by 50% with MeCN. A five-point linearity curve was prepared in PBS/MeCN (1:1, v/v) at 200, 150, 75, 25, and 2.5 μM. Blank, linearity, and test samples (n = 2) were transferred to a UV-readable plate, and the plate was scanned for absorbance. Best-fit calibration curves were constructed using the calibration standards and used to determine the test sample solubility. The experiment was carried out in duplicate. Diethylstilbestrol, Haloperidol, and Diclofenac Sodium were used as reference standards.

Rat hepatocyte stability = format: in vitro ADME; conditions: rat hepatocyte stability
Experimental: The reaction was terminated with the addition of ice-cold MeCN at designated time points. The samples were then centrifuged (4200 rpm) for 20 min at 20 °C, and the supernatant was half diluted in water and then analyzed using LCMS/MS. The % parent compound remaining, half-life (t 1/2), and clearance (CLint) were calculated using standard methodology. The experiment was carried out in duplicate. Diltiazem, 7-Ethoxy Coumarin, Propranolol, and Midazolam were used as reference standards.

[4] = Human liver microsome stability; format: in vitro ADME; conditions: human, pooled human liver microsomes, human microsomal intrinsic clearance; read-out: hMics, human microsome Clint
Experimental: A solution of the test compounds in phosphate buffer solution (1 μM) was incubated in pooled human or mouse liver microsomes (0.5 mg/mL) for 0, 5, 20, 30, 45, and 60 min at 37 °C in the presence and absence of an NADPH regeneration system (NRS). The tests were conducted by […], India. The reaction was terminated with the addition of ice-cold acetonitrile, containing a […] standard, at designated time points. The sample was centrifuged (4200g) for 20 min at 20 °C and the supernatant was diluted by half in water and then analyzed by LC-MS/MS. The % parent compound remaining, half-life (t 1/2) and clearance (CLint) were calculated using standard methodology. The experiment was carried out in duplicate. Verapamil, diltiazem, phenacetin, and imipramine were used as reference standards.

[5] = Resazurin assay for cytotoxicity in HepG2 cells; format: cell-based, human; conditions: human, HepG2 cells; HepG2 cell line, 72 h, resazurin
Experimental: HepG2 cells were trypsinized, counted, and distributed in a 96-well plate at a density of 30,000 cells per well (180 μL). The plate was incubated at 37 °C and 5% CO2 for 24 h. Following incubation, 20 μL of serial dilutions of the tested compounds were added to the wells, with concentrations ranging from 30 to 0.47 μM. The plate was incubated for an additional 72 h at 37 °C and 5% CO2. Untreated cells served as positive controls, while wells containing only medium were used as negative controls. Postincubation, microscopy was employed to determine the highest compound concentration for treatment results. […] Concentration–response curves were generated, and half-maximal inhibitory concentration (CC50) values were determined using nonlinear regression analysis.

P. falciparum K1 strain = assay: Antiplasmodial activity against resistant P. falciparum K1; format: cell-based; conditions: Plasmodium falciparum, 3D7 / K1; resistant K1, in parallel with 3D7; read-out: IC50^K1 ± SD
P. falciparum Dd2 strain = assay: Antiplasmodial activity against resistant P. falciparum Dd2; format: cell-based; conditions: Plasmodium falciparum, 3D7 / DD2; resistant Dd2, in parallel with 3D7; read-out: IC50^Dd2 ± SD
[6] = 3D7, 72 h, 3D7 strain, 72 h, SYBR Green, read-out: Pf3D7-IC50
[7] = 3D7 / DD2, sensitive 3D7, in parallel with K1 and Dd2, read-out: IC50^3D7 ± SD

Structure (SMILES)	IC50 [1, 6] [µM]	logD at 2 h [2]	solubility kinetic at 2 h [3] [µM]	R Heps (Clint) (Rat hepatocyte stability) [μL/min/10^6]	microsomal CLint at 1 μM [4] [µL/min/mg]	further results
O=C(c1cc2cc(Cl)ccc2[nH]1)N(Cc1cccnc1)CC1CCOC1 (centres unmarked) [Compound 5r, 5-Chloro-N-(pyridin-3-ylmethyl)-N-((tetrahydrofuran-3-yl)methyl)-1H-indole-2-carboxamide]	> 10	–	–	–	–	–
O=C1CC(CN(Cc2cccnc2)C(=O)c2cc3cc(Cl)ccc3[nH]2)CN1 (centres unmarked) [Compound 5s, 5-Chloro-N-[(5-oxopyrrolidin-3-yl)methyl]-N-(3-pyridylmethyl)-1H-indole-2-carboxamide]	> 10	–	–	–	–	–
O=C(c1c[nH]c2ccc(Cl)cc12)N(Cc1cccnc1)CC1CCNC1 (centres unmarked) [Compound 6h, 5-Chloro-N-(3-pyridylmethyl)-N-(pyrrolidin-3-ylmethyl)-1H-indole-3-carboxamide]	> 10	–	–	–	–	–
O=C(c1nc2cc(Cl)ccc2[nH]1)N(Cc1cccnc1)CC1CCNC1 (centres unmarked) [Compound 6i, 5-Chloro-N-(3-pyridylmethyl)-N-(pyrrolidin-3-ylmethyl)-1H-benzimidazole-2-carboxamide]	> 10	–	–	–	–	–
O=C(c1cccc(Cl)c1)N(Cc1cccnc1)CC1CCNC1 (centres unmarked) [Compound 6j, 3-Chloro-N-(pyridin-3-ylmethyl)-N-(pyrrolidin-3-ylmethyl)benzamide]	> 25	–	–	–	–	–
O=C(c1cc2cc(Cl)ccc2[nH]1)N(Cc1ccncc1)CC1CCNC1 (centres unmarked) [Compound 6l, 5-Chloro-N-(4-pyridylmethyl)-N-(pyrrolidin-3-ylmethyl)-1H-indole-2-carboxamide]	12.8 ± 0.8	–	–	–	–	Pf3D7-IC50 compared to 6a [1]: > 10 fold
O=C(c1cc2cc(Cl)ccc2[nH]1)N(Cc1ccccn1)CC1CCNC1 (centres unmarked) [Compound 6m, 5-Chloro-N-(2-pyridylmethyl)-N-(pyrrolidin-3-ylmethyl)-1H-indole-2-carboxamide]	14.1 ± 0.6	–	–	–	–	Pf3D7-IC50 compared to 6a [1]: > 10 fold
O=C(c1cc2cc(Cl)ccc2[nH]1)N(Cc1cnccn1)CC1CCNC1 (centres unmarked) [Compound 6n, 5-Chloro-N-(pyrazin-2-ylmethyl)-N-(pyrrolidin-3-ylmethyl)-1H-indole-2-carboxamide]	> 10	–	–	–	–	–
CS(=O)(=O)c1ccc(CN(CC2CCNC2)C(=O)c2cc3cc(Cl)ccc3[nH]2)cn1 (centres unmarked) [Compound 6p, 5-Chloro-N-[(6-methylsulfonyl-3-pyridyl)methyl]-N-(pyrrolidin-3-ylmethyl)-1H-indole-2-carboxamide]	> 10	–	–	–	–	–
CNCCN(CC1CCNC1)C(=O)c1cc2cc(Cl)ccc2[nH]1 (centres unmarked) [Compound 6q, 5-Chloro-N-[2-(methylamino)ethyl]-N-(pyrrolidin-3-ylmethyl)-1H-indole-2-carboxamide]	> 10	–	–	–	–	–

The next molecules have a lower IC50 [1, 6] than those just listed; values first:

IC50 [1, 6] [µM]	logD at 2 h [2]	solubility kinetic at 2 h [3] [µM]	R Heps (Clint) (Rat hepatocyte stability) [μL/min/10^6]	microsomal CLint at 1 μM [4] [µL/min/mg]	Structure (SMILES)	further results
1 ± 0.2	0.7	196 (≈ 72.3 µg/mL)	8	10	O=C(c1cc2cc(Cl)ccc2[nH]1)N(Cc1cccnc1)C[C@@H]1CCNC1 [6a (R), 5-Chloro-N-(3-pyridylmethyl)-N-[[(3R)-pyrrolidin-3-yl]methyl]-1H-indole-2-carboxamide]	CC50 at 72 h [5]: > 30 µM
8.3 ± 0.2	–	–	–	–	O=C(c1cc2ccccc2[nH]1)N(Cc1cccnc1)CC1CCNC1 (centres unmarked) [Compound 6b, N-(3-Pyridylmethyl)-N-(pyrrolidin-3-ylmethyl)-1H-indole-2-carboxamide]	–
2.2 ± 0.3	0.2	> 1000	60	4	O=C(c1cc2cccc(Cl)c2[nH]1)N(Cc1cccnc1)CC1CCNC1 (centres unmarked) [Compound 6c, 7-Chloro-N-(3-pyridylmethyl)-N-(pyrrolidin-3-ylmethyl)-1H-indole-2-carboxamide]	IC50 [1, 7]: 2.3 ± 0.6 µM; IC50 (P. falciparum K1 strain): 4.9 ± 0.6 µM; IC50 (P. falciparum Dd2 strain): 8.2 ± 0.3 µM
8.8 ± 0.1	-0.1	> 1000	32	7	O=C(c1cc2cc(F)ccc2[nH]1)N(Cc1cccnc1)CC1CCNC1 (centres unmarked) [Compound 6e, 5-Fluoro-N-(3-pyridylmethyl)-N-(pyrrolidin-3-ylmethyl)-1H-indole-2-carboxamide]	–
5.8	–	–	–	–	Cc1c(C(=O)N(Cc2cccnc2)CC2CCNC2)[nH]c2ccc(Cl)cc12 (centres unmarked) [Compound 6g, 5-Chloro-3-methyl-N-(3-pyridylmethyl)-N-(pyrrolidin-3-ylmethyl)-1H-indole-2-carboxamide]	IC50 [1, 7]: 4.2 ± 0.5 µM; IC50 (P. falciparum K1 strain): 6.3 ± 0.3 µM; IC50 (P. falciparum Dd2 strain): 9 ± 0.7 µM
6.7 ± 0.3	–	–	–	–	O=C(c1cc2cc(Cl)ccc2[nH]1)N(Cc1ccccc1)CC1CCNC1 (centres unmarked) [Compound 6k, N-Benzyl-5-chloro-N-(pyrrolidin-3-ylmethyl)-1H-indole-2-carboxamide]	–
4.3 ± 0.2	1.5	883 (≈ 386 µg/mL)	10	3	O=C(c1cc2cc(Cl)ccc2[nH]1)N(Cc1ccc(C(F)(F)F)nc1)CC1CCNC1 (centres unmarked) [Compound 6o, 5-Chloro-N-(pyrrolidin-3-ylmethyl)-N-[[6-(trifluoromethyl)-3-pyridyl]methyl]-1H-indole-2-carboxamide]	–
1.8 ± 0.2	2.6	148 (≈ 50.7 µg/mL)	29	20	CNCCN(Cc1cccnc1)C(=O)c1cc2cc(Cl)ccc2[nH]1 [Compound 6u, 5-Chloro-N-[2-(methylamino)ethyl]-N-(3-pyridylmethyl)-1H-indole-2-carboxamide]	–
0.57 ± 0.07	0.9	> 1000	17	< 3	O=C(c1cc2cc(Cl)ccc2[nH]1)N(Cc1cccnc1)C1CCNC1 (centres unmarked) [Compound 6v, 5-Chloro-N-(3-pyridylmethyl)-N-pyrrolidin-3-yl-1H-indole-2-carboxamide]	–
0.9 ± 0.1	0.5	> 1000	9	< 3	O=C(c1cc2cc(Cl)ccc2[nH]1)N(Cc1cccnc1)CC1CCNCC1 [Compound 6w, 5-Chloro-N-(4-piperidylmethyl)-N-(3-pyridylmethyl)-1H-indole-2-carboxamide]	–
0.46 ± 0.05	1.6	190 (≈ 72.8 µg/mL)	28	20	CN1CCC(CN(Cc2cccnc2)C(=O)c2cc3cc(Cl)ccc3[nH]2)C1 (centres unmarked) [Compound 7a, 5-Chloro-N-[(1-methylpyrrolidin-3-yl)methyl]-N-(pyridin-3-ylmethyl)-1H-indole-2-carboxamide]	IC50 [1, 7]: 0.8 ± 0.2 µM; IC50 (P. falciparum K1 strain): 1.2 ± 0.3 µM; IC50 (P. falciparum Dd2 strain): 2.2 ± 0.3 µM
